Measured values: paper PMC5218480 (PLoS ONE, 2017)

System: MV-4-11 cells
Assay: Gene expression microarray analysis (Affymetrix PrimeView) and GSEA
Type: cell-based, human
Design: RFU PODN (11730768_x_at) / Fold change /veh PODN (11730768_x_at) / RFU LINC00158 (11744669_a_at) / Fold change /veh LINC00158 (11744669_a_at) / RFU DUSP10 (11751237_a_at) / Fold change /veh DUSP10 (11751237_a_at) / RFU ID3 (11757404_x_at) / Fold change /veh ID3 (11757404_x_at) / RFU PLEKHG5 (11737974_s_at) / Fold change /veh PLEKHG5 (11737974_s_at) / RFU LRRC4B (11730491_at) / Fold change /veh LRRC4B (11730491_at) / RFU GIMAP4 (11747438_a_at) / Fold change /veh GIMAP4 (11747438_a_at) / RFU KRT8 (11758183_x_at) / Fold change /veh KRT8 (11758183_x_at) / RFU CNN1 (11734310_a_at) / Fold change /veh CNN1 (11734310_a_at) / RFU VPS37D (11726825_at) / Fold change /veh VPS37D (11726825_at) / RFU C10orf10 (11716522_x_at) / Fold change /veh C10orf10 (11716522_x_at) / RFU KIR2DL2 /// KIR2DL4 /// KIR2DL5A /// KIR2DL5B /// KIR2DS1 /// KIR2DS2 /// KIR2DS3 /// KIR2DS4 /// KIR3DL3 /// KIR3DL3 /// KIR3DS1 (11738374_at) / Fold change /veh KIR2DL2 /// KIR2DL4 /// KIR2DL5A /// KIR2DL5B /// KIR2DS1 /// KIR2DS2 /// KIR2DS3 /// KIR2DS4 /// KIR3DL3 /// KIR3DL3 /// KIR3DS1 (11738374_at) / RFU C1QL1 (11718748_at) / Fold change /veh C1QL1 (11718748_at) / RFU TMPRSS4 (11747572_a_at) / Fold change /veh TMPRSS4 (11747572_a_at) / RFU HAMP (11756126_x_at) / Fold change /veh HAMP (11756126_x_at) / RFU RNFT2 (11725882_a_at) / Fold change /veh RNFT2 (11725882_a_at) / RFU NR4A2 (11747474_a_at) / Fold change /veh NR4A2 (11747474_a_at) / RFU ABCC12 (11746883_a_at) / Fold change /veh ABCC12 (11746883_a_at) / RFU TMEM136 (11760407_x_at) / Fold change /veh TMEM136 (11760407_x_at) / RFU CLDN22 /// WWC2 (11732394_at) / Fold change /veh CLDN22 /// WWC2 (11732394_at) / RFU HLA-DPB1 (11760878_x_at) / Fold change /veh HLA-DPB1 (11760878_x_at) / RFU SPINT1 (11716480_a_at) / Fold change /veh SPINT1 (11716480_a_at) / RFU GAP43 (11754022_s_at) / Fold change /veh GAP43 (11754022_s_at) / RFU A4GNT (11735810_at) / Fold change /veh A4GNT (11735810_at) / RFU PRB3 (11715151_x_at) / Fold change /veh PRB3 (11715151_x_at) / RFU TUBB4B (11761932_at) / Fold change /veh TUBB4B (11761932_at) / RFU CAPN14 (11732068_a_at) / Fold change /veh CAPN14 (11732068_a_at) / RFU TMCC2 (11721928_a_at) / Fold change /veh TMCC2 (11721928_a_at) / RFU IRGQ (11745062_a_at) / Fold change /veh IRGQ (11745062_a_at) / RFU FAM174B (11720279_a_at) / Fold change /veh FAM174B (11720279_a_at) / RFU TMPRSS4 (11748680_a_at) / Fold change /veh TMPRSS4 (11748680_a_at) / RFU FAM212B (11763350_a_at) / Fold change /veh FAM212B (11763350_a_at) / RFU PLEKHG5 (11743358_a_at) / Fold change /veh PLEKHG5 (11743358_a_at) / RFU ZSCAN30 (11745921_a_at) / Fold change /veh ZSCAN30 (11745921_a_at) / RFU CMKLR1 (11741424_a_at) / Fold change /veh CMKLR1 (11741424_a_at) / RFU LOC101060620 /// MAPK8IP1 (11723275_at) / Fold change /veh LOC101060620 /// MAPK8IP1 (11723275_at) / RFU SPTSSB (11747773_x_at) / Fold change /veh SPTSSB (11747773_x_at) / RFU PRSS12 (11739890_at) / Fold change /veh PRSS12 (11739890_at) / RFU BIN1 (11741810_x_at) / Fold change /veh BIN1 (11741810_x_at) / RFU WNT11 (11732464_a_at) / Fold change /veh WNT11 (11732464_a_at) / RFU C10orf10 (11716521_a_at) / Fold change /veh C10orf10 (11716521_a_at) / RFU C5orf56 (11738089_at) / Fold change /veh C5orf56 (11738089_at) / RFU CYB561 (11721691_x_at) / Fold change /veh CYB561 (11721691_x_at) / RFU ANKRD19P (11752326_a_at) / Fold change /veh ANKRD19P (11752326_a_at) / RFU OR2T12 /// OR2T33 /// OR2T8 (11738714_s_at) / Fold change /veh OR2T12 /// OR2T33 /// OR2T8 (11738714_s_at) / RFU VCAN (11748164_a_at) / Fold change /veh VCAN (11748164_a_at) / RFU JSRP1 (11732532_at) / Fold change /veh JSRP1 (11732532_at) / RFU KRTAP10-11 (11738290_x_at) / Fold change /veh KRTAP10-11 (11738290_x_at) / RFU MYO3A (11730013_a_at) / Fold change /veh MYO3A (11730013_a_at) / RFU EBF3 (11725865_a_at) / Fold change /veh EBF3 (11725865_a_at) / RFU CAMK2N1 (11719241_x_at) / Fold change /veh CAMK2N1 (11719241_x_at) / RFU C5orf56 (11738088_a_at) / Fold change /veh C5orf56 (11738088_a_at) / RFU OLFML3 (11715873_a_at) / Fold change /veh OLFML3 (11715873_a_at) / RFU LOC100653217 /// NTM (11731650_a_at) / Fold change /veh LOC100653217 /// NTM (11731650_a_at) / RFU MAPK11 (11762145_a_at) / Fold change /veh MAPK11 (11762145_a_at) / RFU FIZ1 (11724087_x_at) / Fold change /veh FIZ1 (11724087_x_at) / RFU OASL (11726364_x_at) / Fold change /veh OASL (11726364_x_at) / RFU SOX15 (11748057_x_at) / Fold change /veh SOX15 (11748057_x_at) / RFU CD79A (11719716_a_at) / Fold change /veh CD79A (11719716_a_at) / RFU HIST1H1D (11736915_at) / Fold change /veh HIST1H1D (11736915_at) / RFU CASKIN2 (11723855_a_at) / Fold change /veh CASKIN2 (11723855_a_at) / RFU LOC730098 (11760151_x_at) / Fold change /veh LOC730098 (11760151_x_at) / RFU OR4N2 (11742367_at) / Fold change /veh OR4N2 (11742367_at) / RFU PRRT2 (11749266_a_at) / Fold change /veh PRRT2 (11749266_a_at) / RFU SNX32 (11753110_a_at) / Fold change /veh SNX32 (11753110_a_at) / RFU CDHR5 (11726645_a_at) / Fold change /veh CDHR5 (11726645_a_at) / RFU RCAN1 (11760418_a_at) / Fold change /veh RCAN1 (11760418_a_at) / RFU FAM167A (11723789_a_at) / Fold change /veh FAM167A (11723789_a_at) / RFU FAM26E (11764081_at) / Fold change /veh FAM26E (11764081_at) / RFU ISYNA1 (11749810_s_at) / Fold change /veh ISYNA1 (11749810_s_at) / RFU ACY1 (11761880_at) / Fold change /veh ACY1 (11761880_at) / RFU 11764098_at / Fold change /veh 11764098_at / RFU SAMD14 (11745864_x_at) / Fold change /veh SAMD14 (11745864_x_at) / RFU NPB (11741838_a_at) / Fold change /veh NPB (11741838_a_at) / RFU TMPRSS6 (11731388_a_at) / Fold change /veh TMPRSS6 (11731388_a_at) / RFU KRTAP10-2 (11738614_at) / Fold change /veh KRTAP10-2 (11738614_at) / RFU ARHGAP8 /// PRR5-ARHGAP8 (11727945_x_at) / Fold change /veh ARHGAP8 /// PRR5-ARHGAP8 (11727945_x_at) / RFU KRTAP5-7 /// NADSYN1 (11734609_at) / Fold change /veh KRTAP5-7 /// NADSYN1 (11734609_at) / RFU RASL12 (11751679_a_at) / Fold change /veh RASL12 (11751679_a_at) / RFU CDKN2B (11736163_a_at) / Fold change /veh CDKN2B (11736163_a_at) / RFU PRF1 (11729649_at) / Fold change /veh PRF1 (11729649_at) / RFU, ZNF638 /// ZNF638-IT1 / Fold change vs veh, ZNF638 /// ZNF638-IT1 / RFU, PANK3 / Fold change vs veh, PANK3 / RFU, SH3YL1 / Fold change vs veh, SH3YL1 / RFU, ZEB2 / Fold change vs veh, ZEB2 / RFU, NRIP1 / Fold change vs veh, NRIP1 / RFU, PTTG1IP / Fold change vs veh, PTTG1IP / RFU, CAPN2 / Fold change vs veh, CAPN2 / RFU, MED14 / Fold change vs veh, MED14 / RFU, SNORA58 / Fold change vs veh, SNORA58 / RFU, C1orf63 / Fold change vs veh, C1orf63 / RFU, LRRFIP1 / Fold change vs veh, LRRFIP1 / RFU, NDUFAF7 / Fold change vs veh, NDUFAF7 / RFU, SLC12A2 / Fold change vs veh, SLC12A2 / RFU, IBTK / Fold change vs veh, IBTK / RFU, ESF1 / Fold change vs veh, ESF1 / Fold change vs veh, TMEM50B / RFU, TAOK1 / Fold change vs veh, TAOK1 / RFU, ACBD3 / Fold change vs veh, ACBD3 / RFU, TMA16 / Fold change vs veh, TMA16 / RFU, RWDD3 / Fold change vs veh, RWDD3 / RFU, BCAT1 / Fold change vs veh, BCAT1 / RFU, EDEM3 / Fold change vs veh, EDEM3 / RFU, TMEM33 / Fold change vs veh, TMEM33 / RFU, WDR75 / Fold change vs veh, WDR75 / RFU, AHCTF1 / Fold change vs veh, AHCTF1 / RFU, TFRC / Fold change vs veh, TFRC / RFU, ZDHHC17 / Fold change vs veh, ZDHHC17 / RFU, NOM1 / Fold change vs veh, NOM1 / RFU, ARL8B / Fold change vs veh, ARL8B / RFU, ZBTB11 / Fold change vs veh, ZBTB11 / RFU, TAMM41 / Fold change vs veh, TAMM41 / RFU, KIAA1704 /// LOC100996395 / Fold change vs veh, KIAA1704 /// LOC100996395 / RFU, ING1 / Fold change vs veh, ING1 / RFU, TRMT61B / Fold change vs veh, TRMT61B / RFU, FUBP3 / Fold change vs veh, FUBP3 / RFU, TP53 / Fold change vs veh, TP53 / RFU, TNKS2 / Fold change vs veh, TNKS2 / RFU, ZFP14 / Fold change vs veh, ZFP14 / RFU, ACTR2 / Fold change vs veh, ACTR2 / RFU, PPP3R1 / Fold change vs veh, PPP3R1 / RFU, PIK3R1 / Fold change vs veh, PIK3R1 / RFU, HNRNPA1 / Fold change vs veh, HNRNPA1 / RFU, RNF170 / Fold change vs veh, RNF170 / RFU, ZNF28 / Fold change vs veh, ZNF28 / RFU, RNGTT / Fold change vs veh, RNGTT / RFU, OGT / Fold change vs veh, OGT / RFU, BRD1 / Fold change vs veh, BRD1 / RFU, MARS / Fold change vs veh, MARS / RFU, ZNF655 / Fold change vs veh, ZNF655 / RFU, FAHD1 / Fold change vs veh, FAHD1 / RFU, BDP1 / Fold change vs veh, BDP1 / RFU, LRRCC1 / Fold change vs veh, LRRCC1 / RFU, ARID1A / Fold change vs veh, ARID1A / RFU, ZNF146 / Fold change vs veh, ZNF146 / RFU, ZNF330 / Fold change vs veh, ZNF330 / RFU, GPN3 / Fold change vs veh, GPN3 / RFU, C9orf123 / Fold change vs veh, C9orf123 / RFU, N4BP2L2 / Fold change vs veh, N4BP2L2 / RFU, ARFIP1 / Fold change vs veh, ARFIP1 / RFU, FAM179B / Fold change vs veh, FAM179B / RFU, BCL10 / Fold change vs veh, BCL10 / RFU, UHRF1BP1L / Fold change vs veh, UHRF1BP1L / RFU, BET1 / Fold change vs veh, BET1 / RFU, CNOT2 / Fold change vs veh, CNOT2 / RFU, ZNF268 / Fold change vs veh, ZNF268 / Fold change vs veh, ZNF507 / RFU, DGCR2 / Fold change vs veh, DGCR2 / RFU, WDSUB1 / Fold change vs veh, WDSUB1 / Fold change vs veh, HSP90B1 /// MIR3652 / RFU, ADSS / Fold change vs veh, ADSS / RFU, GK / Fold change vs veh, GK / RFU, ZNF148 / Fold change vs veh, ZNF148 / RFU, TAF9 / Fold change vs veh, TAF9 / RFU, SLC1A5 / Fold change vs veh, SLC1A5 / RFU, SLMO2 / Fold change vs veh, SLMO2 / RFU, ABCC4 / Fold change vs veh, ABCC4 / RFU, LOC101060439 /// RAP1B / Fold change vs veh, LOC101060439 /// RAP1B / RFU, RFX7 / Fold change vs veh, RFX7 / RFU, GTPBP10 / Fold change vs veh, GTPBP10 / RFU, CNEP1R1 / Fold change vs veh, CNEP1R1 / RFU, BIVM-ERCC5 /// ERCC5 / Fold change vs veh, BIVM-ERCC5 /// ERCC5 / RFU, ILF3 / Fold change vs veh, ILF3 / RFU 11762660_at / Fold change /veh 11762660_at / RFU VCAN (11757783_s_at) / Fold change /veh VCAN (11757783_s_at) / RFU DDX43 (11728927_at) / Fold change /veh DDX43 (11728927_at) / RFU KRT8 (11758188_x_at) / Fold change /veh KRT8 (11758188_x_at) / RFU NKD1 (11759106_at) / Fold change /veh NKD1 (11759106_at) / RFU SRD5A1 (11742802_a_at) / Fold change /veh SRD5A1 (11742802_a_at) / RFU TPSAB1 /// TPSB2 (11721975_s_at) / Fold change /veh TPSAB1 /// TPSB2 (11721975_s_at) / RFU GSTM3 (11746129_a_at) / Fold change /veh GSTM3 (11746129_a_at) / RFU IL23R (11737362_x_at) / Fold change /veh IL23R (11737362_x_at) / RFU TMEM51 (11727254_a_at) / Fold change /veh TMEM51 (11727254_a_at) / RFU PIWIL2 (11732686_x_at) / Fold change /veh PIWIL2 (11732686_x_at) / RFU ORM1 (11744905_x_at) / Fold change /veh ORM1 (11744905_x_at) / RFU CCDC152 (11743942_at) / Fold change /veh CCDC152 (11743942_at) / RFU ECM1 (11717891_a_at) / Fold change /veh ECM1 (11717891_a_at) / RFU IL23R (11748794_a_at) / Fold change /veh IL23R (11748794_a_at) / RFU TNFAIP8L3 (11732012_x_at) / Fold change /veh TNFAIP8L3 (11732012_x_at) / RFU MBOAT4 (11741988_at) / Fold change /veh MBOAT4 (11741988_at) / RFU 11764193_at / Fold change /veh 11764193_at / RFU TMEM53 (11763286_at) / Fold change /veh TMEM53 (11763286_at) / RFU MAGEB2 (11727129_at) / Fold change /veh MAGEB2 (11727129_at) / RFU TMEM200A (11744735_a_at) / Fold change /veh TMEM200A (11744735_a_at) / RFU CCDC152 (11751479_a_at) / Fold change /veh CCDC152 (11751479_a_at) / RFU FAM211A (11726209_a_at) / Fold change /veh FAM211A (11726209_a_at) / RFU RGS16 (11746705_a_at) / Fold change /veh RGS16 (11746705_a_at) / RFU VCAN (11755009_s_at) / Fold change /veh VCAN (11755009_s_at) / RFU RHOB (11743442_s_at) / Fold change /veh RHOB (11743442_s_at) / RFU RGS16 (11720943_a_at) / Fold change /veh RGS16 (11720943_a_at) / RFU RGS16 (11720944_at) / Fold change /veh RGS16 (11720944_at) / RFU, VPS4B / Fold change vs veh, VPS4B / RFU, CREB1 / Fold change vs veh, CREB1 / RFU, DNAJC13 / Fold change vs veh, DNAJC13 / RFU, GNAQ / Fold change vs veh, GNAQ / RFU, CDK5R1 / Fold change vs veh, CDK5R1 / RFU, ZRANB3 / Fold change vs veh, ZRANB3 / RFU, CUL4A / Fold change vs veh, CUL4A / RFU, CCNY / Fold change vs veh, CCNY / RFU, UFL1 / Fold change vs veh, UFL1 / RFU, COG3 / Fold change vs veh, COG3 / RFU, DIAPH2 / Fold change vs veh, DIAPH2 / RFU, SKA2 / Fold change vs veh, SKA2 / RFU, AFF3 / Fold change vs veh, AFF3 / RFU, LMF1 / Fold change vs veh, LMF1 / RFU, IPO11 / Fold change vs veh, IPO11 / RFU, DFFB / Fold change vs veh, DFFB / RFU, FOXP1 / Fold change vs veh, FOXP1 / RFU, CARD8 / Fold change vs veh, CARD8 / RFU, STRN3 / Fold change vs veh, STRN3 / RFU, ADK / Fold change vs veh, ADK / RFU, RASSF2 / Fold change vs veh, RASSF2 / RFU, WIPF1 / Fold change vs veh, WIPF1 / RFU, LARP1B / Fold change vs veh, LARP1B / RFU, RASA1 / Fold change vs veh, RASA1 / RFU, RB1 / Fold change vs veh, RB1 / RFU, PPFIA1 / Fold change vs veh, PPFIA1 / RFU, MAT2A / Fold change vs veh, MAT2A / RFU, CCT5 / Fold change vs veh, CCT5 / RFU, WDR92 / Fold change vs veh, WDR92 / RFU, CUX1 / Fold change vs veh, CUX1 / RFU, TTC7A / Fold change vs veh, TTC7A / RFU, TMEM135 / Fold change vs veh, TMEM135 / RFU, DEPTOR / Fold change vs veh, DEPTOR / RFU, CPM / Fold change vs veh, CPM / RFU, DNAJB6 / Fold change vs veh, DNAJB6 / RFU, CACNA2D3 / Fold change vs veh, CACNA2D3 / RFU, DTX4 / Fold change vs veh, DTX4 / RFU, TFCP2 / Fold change vs veh, TFCP2 / RFU, GMCL1 /// GMCL1P1 / Fold change vs veh, GMCL1 /// GMCL1P1 / RFU, AEBP2 / Fold change vs veh, AEBP2 / RFU, SNHG1 /// SNORD22 /// SNORD25 /// SNORD26 /// SNORD27 /// SNORD28 /// SNORD29 /// SNORD31 / Fold change vs veh, SNHG1 /// SNORD22 /// SNORD25 /// SNORD26 /// SNORD27 /// SNORD28 /// SNORD29 /// SNORD31 / Fold change (Aza/veh), C12orf56 (ProbeSet 11735607_a_at) / Fold change (ACY-1035/veh), C12orf56 (ProbeSet 11735607_a_at) / Fold change (Aza/veh), FGFR1OP (ProbeSet 11751329_s_at) / Fold change (ACY-1035/veh), FGFR1OP (ProbeSet 11751329_s_at) / Fold change (Aza/veh), VPS36 (ProbeSet 11739960_a_at) / Fold change (ACY-1035/veh), VPS36 (ProbeSet 11739960_a_at) / RFU SYPL1 (11715823_x_at) / Fold change /veh SYPL1 (11715823_x_at) / RFU IGFBP7 (11715501_s_at) / Fold change /veh IGFBP7 (11715501_s_at) / RFU REEP3 (11722064_at) / Fold change /veh REEP3 (11722064_at) / RFU IGLL1 (11728026_x_at) / Fold change /veh IGLL1 (11728026_x_at): dose or concentration left out as unconfirmed
Details: ProbeSet 11738335_x_at; LIST B

Nc1ccc(-c2cccs2)cc1NC(=O)c1ccc2c(c1)cc(C1CC1)n2CCN1CCOCC1 [ACY-1035]
RFU, TP53: 73.59 RFU
